The test system of test [1] is mouse RAW 264.7 cells incubated with E. coli O113 LPS. Conditions: RAW 264.7 cells with E. coli O113 LPS; concentration reversing LPS growth inhibition by 50%. The protocol: (§1) An in vitro LPS neutralization screening assay for evaluation of Domain III derived peptides was developed (as described in co-owned and co-pending U.S. patent application Ser. No. 08/306,473) which provides both a measure of efficacy of each peptide (EC50) and of the toxicity/growth inhibition of each peptide (IC50).
(§2) The cells were counted and their concentration adjusted to 2×10^5 cells/mL and 100 μL aliquots were added to each well of a 96-well microtitre plate. […] This incubation was performed in the absence or presence of peptides in varying concentrations between 25 ng/mL and 50 μg/mL. […] Cell proliferation was quantitatively measured by the addition of 1 μCi/well [^3H]-thymidine 5 hours after the time of initiation of the assay. After the 15-hour incubation, labeled cells were harvested onto glass fiber filters with a cell harvester (Inotech Biosystems, INB-384, Sample Processing and Filter Counting System, Lansing, Mich.).

The subject of test [2] is mouse RAW 264.7 cells. Here is the method:
as §1, §2

[3] abbreviates: RAW 264.7 cell growth inhibited by 50%.

Read-outs that look alike come from different tables or passages of the source. Square brackets hold non-standard residues; d marks the D form. Ends that are not written are not given here. Peptide text beside a SMILES is read from it. Phe(4-NH2) = Nc1ccc(C[C@H](N)C(=O)O)cc1; 12Ado = NCCCCCCCCCCCC(=O)O; Orn = NCCC[C@H](N)C(=O)O; Dab = NCC[C@H](N)C(=O)O; Aoc = NCCCCCCCC(=O)O A value given as a limit tells only on which side of the number the result lay.

Regarding H-KKWLIQLFHKK-NH2 [XMP.352P], the “In Vitro LPS Neutralization EC50” value in test [1] was 2.34 ± 0.38 µg/mL. The “IC50 (toxicity/growth inhibition of peptide)” value in test [2] (setting [3]) is “NA (NA for IC50 means no evidence of decreased RAW cell growth at up to 50 μg/ml)”.
As to KWAIQLFHKK-NH2 [XMP.386P], the “In Vitro LPS Neutralization EC50” value in test [1] was 9.75 ± 1.02 µg/mL. Besides, in test [2] (setting [3]), the “IC50 (toxicity/growth inhibition of peptide)” value is reported as “NA (NA for IC50 means no evidence of decreased RAW cell growth at up to 50 μg/ml)”.
The corresponding values for H-PWLIQLFHKK-NH2 [XMP.355P] are 1.08 ± 0.05 µg/mL and “NA (NA for IC50 means no evidence of decreased RAW cell growth at up to 50 μg/ml)”.
In the case of `CC[C@H](C)[C@H](NC(=O)[C@H](CC(C)C)NC(=O)[C@@H](N)Cc1c[nH]c2ccccc12)C(=O)N[C@@H](CCC(N)=O)C(=O)N[C@@H](CC(C)C)C(=O)N[C@@H](Cc1ccccc1)C(=O)N[C@@H](Cc1c[nH]cn1)C(=O)N[C@@H](CCCCN)C(N)=O` [XMP.303P], the “In Vitro LPS Neutralization EC50” value in test [1] stood at 11.79 ± 0.85 µg/mL. Further, the “IC50 (toxicity/growth inhibition of peptide)” value in test [2] (setting [3]) is on record as “NA (NA for IC50 means no evidence of decreased RAW cell growth at up to 50 μg/ml)”.
Regarding `CC[C@H](C)[C@@H]1NC(=O)[C@H](C)NC(=O)[C@H](Cc2c[nH]c3ccccc23)NC(=O)[C@H](CCCCN)NC(=O)[C@H](CCCCN)NC(=O)[C@H](CCCCN)NC(=O)[C@H](CC(C)C)NC(=O)[C@H](CCC(N)=O)NC1=O` [XMP.408P] (cyclo(LKKKWAIQ)), the “In Vitro LPS Neutralization EC50” value in test [1] was “NA (NA for EC50 means no evidence neutralization of LPS at up to 50 μg/ml)”. Moreover, in test [2] (setting [3]), the “IC50 (toxicity/growth inhibition of peptide)” value is “NA (NA for IC50 means no evidence of decreased RAW cell growth at up to 50 μg/ml)”.
The matching figures for KKKWAIQLKK-NH2 [XMP.377P]: “NA (NA for EC50 means no evidence neutralization of LPS at up to 50 μg/ml)” and “NA (NA for IC50 means no evidence of decreased RAW cell growth at up to 50 μg/ml)”.
The matching figures for `CC[C@@H](C)[C@@H](NC(=O)[C@@H](CCC(N)=O)NC(=O)[C@@H](CC(C)C)NC(=O)[C@@H](CCCCN)NC(=O)[C@H](N)CCCCN)C(=O)N[C@H](C)C(=O)N[C@H](Cc1c[nH]c2ccccc12)C(=O)N[C@H](CCCCN)C(=O)N[C@H](CCCCN)C(N)=O` [XMP.376P] (H-[dK][dK][dL][dQ][dI][dA][dW][dK][dK]-NH2): more than 50 µg/mL and “NA (NA for IC50 means no evidence of decreased RAW cell growth at up to 50 μg/ml)”.
On to H-HHWLIQLHH-NH2 [XMP 337P], for which the “In Vitro LPS Neutralization EC50” value in test [1] was more than 50 µg/mL. In addition, in test [2] (setting [3]), the “IC50 (toxicity/growth inhibition of peptide)” value is reported as “NA (NA for IC50 means no evidence of decreased RAW cell growth at up to 50 μg/ml)”.
With H-KKLLLLLKK-NH2 [XMP.385P], in test [1], the “In Vitro LPS Neutralization EC50” value was determined as 2.56 ± 0.23 µg/mL. In addition, the “IC50 (toxicity/growth inhibition of peptide)” value in test [2] was more than 25 µg/mL.
Turning to `CC[C@@H](C)[C@@H](NC(=O)[C@@H](CC(C)C)NC(=O)[C@@H](Cc1c[nH]c2ccccc12)NC(=O)[C@@H](CCCCN)NC(=O)CCCCCCCCCCCN)C(=O)N[C@H](CCC(N)=O)C(=O)N[C@H](CC(C)C)C(=O)N[C@H](Cc1ccccc1)C(=O)N[C@H](Cc1c[nH]cn1)C(=O)N[C@H](CCCCN)C(=O)N[C@H](CCCCN)C(N)=O` [XMP.417] (H-[12Ado][dK][dW][dL][dI][dQ][dL][dF][dH][dK][dK]-NH2; C-terminus assumed), the “In Vitro LPS Neutralization EC50” value in test [1] came out at 3.88 ± 0.20 µg/mL. Besides, the “IC50 (toxicity/growth inhibition of peptide)” value in test [2] turned out to be 11.26 ± 1.30 µg/mL.
As to H-KVPWLIQLFHKK-NH2 [XMP.392P], in test [1], the “In Vitro LPS Neutralization EC50” value worked out at 24.03 ± 2.67 µg/mL. The “IC50 (toxicity/growth inhibition of peptide)” value in test [2] (setting [3]) is given as “NA (NA for IC50 means no evidence of decreased RAW cell growth at up to 50 μg/ml)”.
On to H-SKWAIQLKK-NH2 [XMP.409P], for which, in test [1], the “In Vitro LPS Neutralization EC50” value is “NA (NA for EC50 means no evidence neutralization of LPS at up to 50 μg/ml)”. For the same compound, the “IC50 (toxicity/growth inhibition of peptide)” value in test [2] (setting [3]) is recorded as “NA (NA for IC50 means no evidence of decreased RAW cell growth at up to 50 μg/ml)”.
As to `CC[C@H](C)[C@H](NC(=O)[C@H](CC(C)C)NC(=O)[C@H](Cc1c[nH]c2ccccc12)NC(=O)[C@H](N)CS)C(=O)N[C@@H](CCC(N)=O)C(=O)N[C@@H](CC(C)C)C(=O)N[C@@H](Cc1ccccc1)C(=O)N[C@@H](Cc1c[nH]cn1)C(=O)N[C@@H](CCCCN)C(=O)N[C@@H](CCCCN)C(N)=O` [XMP.359P] (H-[dC]WLIQLFHKK-NH2; N-terminus assumed), in test [1], the “In Vitro LPS Neutralization EC50” value was found to be 7.31 ± 1.26 µg/mL. Also, the “IC50 (toxicity/growth inhibition of peptide)” value in test [2] is more than 25 µg/mL.
As for Ac-PWLIQLFHKK-NH2 [XMP.356P], the “In Vitro LPS Neutralization EC50” value in test [1] stood at 2.72 ± 0.02 µg/mL. Also, in test [2], the “IC50 (toxicity/growth inhibition of peptide)” value was more than 25 µg/mL.
Turning to `CC[C@H](C)[C@H](NC(=O)[C@H](CC(C)C)NC(=O)[C@H](Cc1c[nH]c2ccccc12)NC(=O)[C@H](Cc1ccc(N)cc1)NC(=O)[C@@H](N)Cc1ccc(N)cc1)C(=O)N[C@@H](CCC(N)=O)C(=O)N[C@@H](CC(C)C)C(=O)N[C@@H](Cc1ccc(N)cc1)C(=O)N[C@@H](Cc1ccc(N)cc1)C(N)=O` [XMP.340P] (H-[Phe(4-NH2)][Phe(4-NH2)]WLIQL[Phe(4-NH2)][Phe(4-NH2)]-NH2), in test [1], the “In Vitro LPS Neutralization EC50” value is more than 50 µg/mL. Also, the “IC50 (toxicity/growth inhibition of peptide)” value in test [2] (setting [3]) was “NA (NA for IC50 means no evidence of decreased RAW cell growth at up to 50 μg/ml)”.
Consider `CC[C@@H](C)[C@@H](NC(=O)[C@@H](CC(C)C)NC(=O)[C@@H](Cc1c[nH]c2ccccc12)NC(=O)[C@@H](CCCCN)NC(=O)CCCCCCCN)C(=O)N[C@H](CCC(N)=O)C(=O)N[C@H](CC(C)C)C(=O)N[C@H](Cc1ccccc1)C(=O)N[C@H](Cc1c[nH]cn1)C(=O)N[C@H](CCCCN)C(=O)N[C@H](CCCCN)C(N)=O` [XMP.416] (H-[Aoc][dK][dW][dL][dI][dQ][dL][dF][dH][dK][dK]-NH2), for which the “In Vitro LPS Neutralization EC50” value in test [1] turned out to be 4.67 ± 0.27 µg/mL. The “IC50 (toxicity/growth inhibition of peptide)” value in test [2] (setting [3]) was found to be 24.41 ± 0.78 µg/mL.
The corresponding values for H-KKWLIQAKK-NH2 [XMP.345P] are more than 50 µg/mL and “NA (NA for IC50 means no evidence of decreased RAW cell growth at up to 50 μg/ml)”.
For the compound `CC[C@H](C)[C@H](NC(=O)[C@H](CC(C)C)NC(=O)[C@H](Cc1c[nH]c2ccccc12)NC(=O)[C@H](CCN)NC(=O)[C@@H](N)CCN)C(=O)N[C@@H](CCC(N)=O)C(=O)N[C@@H](CC(C)C)C(=O)N[C@@H](CCN)C(=O)N[C@@H](CCN)C(N)=O` [XMP 339P] (H-[Dab][Dab]WLIQL[Dab][Dab]-NH2), the “In Vitro LPS Neutralization EC50” value in test [1] is given as “NA (NA for EC50 means no evidence neutralization of LPS at up to 50 μg/ml)”. Moreover, the “IC50 (toxicity/growth inhibition of peptide)” value in test [2] (setting [3]) is on record as “NA (NA for IC50 means no evidence of decreased RAW cell growth at up to 50 μg/ml)”.
The matching figures for H-KKLLLQLKK-NH2 [XMP.383P]: “NA (NA for EC50 means no evidence neutralization of LPS at up to 50 μg/ml)” and “NA (NA for IC50 means no evidence of decreased RAW cell growth at up to 50 μg/ml)”.
The matching figures for `CC[C@H](C)[C@H](NC(=O)[C@H](CC(C)C)NC(=O)[C@H](Cc1c[nH]c2ccccc12)NC(=O)[C@H](CCCCN)NC(=O)[C@@H]1CCCN1)C(=O)N[C@@H](CCC(N)=O)C(=O)N[C@@H](CC(C)C)C(=O)N[C@@H](CCCCN)C(=O)N[C@@H](CCCCN)C(N)=O` [XMP.335P]: “NA (NA for EC50 means no evidence neutralization of LPS at up to 50 μg/ml)” and “NA (NA for IC50 means no evidence of decreased RAW cell growth at up to 50 μg/ml)”.
The corresponding values for `CC[C@H](C)[C@H](NC(=O)[C@H](CC(C)C)NC(=O)[C@H](Cc1c[nH]c2ccccc12)NC(=O)[C@@H](N)CCCCN)C(=O)N[C@@H](CCCN)C(=O)N[C@@H](CC(C)C)C(=O)N[C@@H](Cc1ccccc1)C(=O)N[C@@H](Cc1c[nH]cn1)C(=O)N[C@@H](CCCCN)C(=O)N[C@@H](CCCCN)C(N)=O` [XMP.369P] (H-KWLI[Orn]LFHKK-NH2) are 12.09 ± 0.43 µg/mL and “NA (NA for IC50 means no evidence of decreased RAW cell growth at up to 50 μg/ml)”.
Take `CC[C@H](C)[C@H](NC(=O)[C@H](CC(C)C)NC(=O)[C@H](Cc1c[nH]c2ccccc12)NC(=O)[C@H](CCCCN)NC(C)=O)C(=O)N[C@@H](CCCN)C(=O)N[C@@H](CC(C)C)C(=O)N[C@@H](Cc1ccccc1)C(=O)N[C@@H](Cc1c[nH]cn1)C(=O)N[C@@H](CCCCN)C(=O)N[C@@H](CCCCN)C(N)=O` [XMP.370P] (Ac-KWLI[Orn]LFHKK-NH2): the “In Vitro LPS Neutralization EC50” value in test [1] is given as “NA (NA for EC50 means no evidence neutralization of LPS at up to 50 μg/ml)”. Also, the “IC50 (toxicity/growth inhibition of peptide)” value in test [2] is more than 25 µg/mL.
Regarding H-KVKWLIQLF-NH2 [XMP.295P], the “In Vitro LPS Neutralization EC50” value in test [1] turned out to be 3.69 ± 0.12 µg/mL. Besides, the “IC50 (toxicity/growth inhibition of peptide)” value in test [2] was more than 25 µg/mL.
`CC[C@H](C)[C@H](NC(=O)[C@H](CC(C)C)NC(=O)[C@@H](Cc1c[nH]c2ccccc12)NC(=O)[C@H](N)CCCCN)C(=O)N[C@@H](CCC(N)=O)C(=O)N[C@@H](CC(C)C)C(=O)N[C@@H](Cc1ccccc1)C(=O)N[C@@H](Cc1c[nH]cn1)C(=O)N[C@H](CCCCN)C(=O)N[C@H](CCCCN)C(N)=O` [XMP.363P]: in test [1], the “In Vitro LPS Neutralization EC50” value was more than 50 µg/mL. Moreover, the “IC50 (toxicity/growth inhibition of peptide)” value in test [2] (setting [3]) was “NA (NA for IC50 means no evidence of decreased RAW cell growth at up to 50 μg/ml)”.

For the origin of these results see patent US6664231B1, “Anti-fungal peptides” (priority 1993, dated 2003).
